Results published in patent US20240358668A1, “METHODS AND CO[…] AM[…] CARD[…] USING (R)-2-AMINO-3-PH[…]” (AXSOME THERAPEUTICS, INC., priority 2021, published 2024).
Marks after values point to notes of the source that are not given here.

Key:
Type in all cases: in vivo, human
[1] = test system: adults with EDS associated with OSA; test: Long-term OLE trial in OSA: vital signs, antihypertensive medication use, AEs of hypertension/increased BP
Experimental: An exploratory analysis of data from one 12-week randomized, controlled trial (Schweitzer P K, et al. Am J Respir Crit Care Med. 2019; 199(11):1421-31) and 1 long-term open-label extension (OLE) trial in adults with EDS (Epworth Sleepiness Scale score ≥10) associated with OSA (Malhotra A, et al. Sleep. 2020; 43(2):zsz220) was carried out. Participants with current/prior use of primary OSA therapy (positive airway pressure [PAP], oral pressure therapy, oral appliance, or upper airway stimulation) were eligible, regardless of the level of adherence to primary OSA therapy; participants who had not attempted to use primary OSA therapy were excluded. Adherence to primary OSA therapy was defined as PAP use ≥4 hours/night on ≥70% of nights/week, historical report (with investigator concurrence) of oral appliance use on ≥70% of nights, or effective surgical intervention. Nonadherence to primary OSA therapy was defined as device use at a level lower than specific above, no device use at all, or surgical intervention deemed no longer effective. Participants received placebo or solriamfetol 37.5 (12-week trial only), 75, 150, or 300 mg/day for 12 weeks (12-week trial) or ≤40 weeks (OLE trial). Vital signs, antihypertensive medication use, and adverse events (AEs) were monitored throughout the studies. Baseline demographics, CV comorbidities, and concomitant medications, the percentage of participants who initiated antihypertensive medication use during treatment, and the incidence of and discontinuations due to AEs of hypertension/increased BP were summarized for the safety population (participants who received ≥1 dose of study medication).

[2] = 1-year open-label extension (OLE) study: weight change
Experimental: A 1-year open-label extension (OLE) study was performed with 374 participants to examined whether clinically significant weight loss (≥5%) in this population had favorable effects on biomarkers of cardiovascular risk compared to no such weight loss. The study measured changes in weight and BP (parent study baseline to OLE week 40) and clinical laboratory assessments (OLE baseline to week 40) in participants with narcolepsy (n=124) or OSA (n=250) who received solriamfetol at doses of 75, 150, or 300 mg/d.
Increased prevalence of obesity has been reported in patients with narcolepsy and obstructive sleep apnea (OSA). […] We examined whether clinically significant weight loss (≥5%) in this population had favorable effects on biomarkers of cardiovascular risk compared to no such weight loss.
We evaluated changes in weight and BP (parent study baseline to OLE week 40) and clinical laboratory assessments (OLE baseline to week 40) in participants with narcolepsy (n=124) or OSA (n=250) from the OLE study.

participants with OSA = test: Study 14-003, 12-week randomized controlled trial: 24-hour ABPM at screening and week 8; conditions: for effect on percentage of participants with a non-dipping BP profile: screening to week 8, any dose studied
Experimental: Solriamfetol is a dopamine and norepinephrine reuptake inhibitor indicated to improve wakefulness in adult patients with excessive daytime sleepiness associated with obstructive sleep apnea (OSA; 37.5-150 mg/d) or narcolepsy (75-150 mg/d). Previous studies reported small mean increases in blood pressure (BP); however, the time course of these effects has not been evaluated. […] These analyses evaluated the effects of solriamfetol treatment on BP using 24-hour ambulatory blood pressure monitoring (ABPM) and on the percentage of OSA patients with a non-dipping BP profile.
Twenty-four-hour ABPM was conducted at baseline and week 8 in a 12-week randomized controlled trial in participants with OSA (n=474). Blood pressure was collected every 30 minutes.

[3] = 37.5 mg, listed as solriamfetol

With NC(=O)OC[C@H](N)Cc1ccccc1 [Solriamfetol, (R)-2-amino-3-phenylpropyl carbamate] the “change in DBP from baseline to week 40” value ([1]; OLE) was 0.29 mm Hg, the “change in HR from baseline to week 40” value ([1]; OLE) was −1.94 bpm and the “change in SBP from baseline to week 40” value ([1]; OLE) was −0.49 mm Hg. The “total participants with AEs of hypertension/increased BP” value ([1]; OLE) was 22 participants, the “serious AE of cerebrovascular accident” value ([1]; OLE trial) was 1 and the “Discontinuation due to AE of HTN/increased BP” value ([1]; OLE, 75 mg) was 1 (0.2)^d n (%). The “Initiated anti-HTN” value ([1]; OLE, 75 mg) was 3 (6.1) n (%), the “AE of HTN/increased BP” value ([1]; OLE, 75 mg, % of participants that ever received the dose level (n = 417)) was 4 (1.0) n (%) and the “Discontinuation due to AE of HTN/increased BP, (%)” value ([1]; OLE, 150 mg) was “(0.2)^d %”. The “Initiated anti-HTN” value ([1]; OLE, 150 mg) was 2 (1.4) n (%), the “AE of HTN/increased BP, (%)” value ([1]; OLE, 150 mg, % of participants that ever received the dose level (n = 402)) was “(1.5) %” and the “Discontinuation due to AE of HTN/increased BP, (%)” value ([1]; OLE, 300 mg) was “(0.3)^e %”. For the same compound, the “Initiated anti-HTN” value ([1]; OLE, 300 mg) was 3 (1.3) n (%), the “AE of HTN/increased BP, (%)” value ([1]; OLE, 300 mg, % of participants that ever received the dose level (n = 326)) was “(3.7) %” and the “participants with ≥5% weight loss” value ([2]; 1-year OLE, narcolepsy or OSA, 75 mg/d) was 4.5%. The “participants with ≥5% weight loss” value ([2]; 1-year OLE, narcolepsy or OSA, 150 mg/d) was 17.3%, the “participants with ≥5% weight loss” value ([2]; 1-year OLE, narcolepsy or OSA, 300 mg/d) was 32.4% and the “participants with ≥5% weight gain” value ([2]; of 374 participants, all doses, 34 participants, week 40) was 9.1 % of total population. The “participants with ≥5% weight loss” value ([2]; of 374 participants, all doses, 96 participants, week 40) was 25.7%, the “Mean Change in DBP on ABPM from Screening to Week 8, Mean (SD)” value (shortened to “Mean Change in DBP on ABPM … (SD)”) (participants with OSA; 37.5 mg) was 0.8 (6.09) mmHg and the “Mean Change in HR on ABPM from Screening to Week 8, Mean (SD)” value (shortened to “Mean Change in HR on ABPM … (SD)”) (participants with OSA; 37.5 mg) was 0.7 (5.57) bpm. For the same compound, the “Mean Change in SBP on ABPM from Screening to Week 8, Mean (SD)” value (from here on “Mean Change in SBP on ABPM … (SD)”) (participants with OSA; 37.5 mg) was 0.7 (10.19) mmHg, the “Mean Change in DBP on ABPM … (SD)” value (participants with OSA; [3]) was 0.8 mmHg and the “Mean Change in SBP on ABPM … (SD)” value (participants with OSA; [3]) was 0.7 mmHg. The “Mean Change in DBP on ABPM … (SD)” value (participants with OSA; 75 mg) was 0.7 (6.55) mmHg, the “Mean Change in HR on ABPM … (SD)” value (participants with OSA; 75 mg) was 0.4 (7.70) bpm and the “Mean Change in SBP on ABPM … (SD)” value (participants with OSA; 75 mg) was 2.2 (9.82) mmHg. For the same compound, the “Mean Change in DBP on ABPM … (SD)” value (participants with OSA; 75 mg, listed as solriamfetol) was 0.7 mmHg, the “Mean Change in SBP on ABPM … (SD)” value (participants with OSA; 75 mg, listed as solriamfetol) was 2.2 mmHg and the “Mean Change in DBP on ABPM … (SD)” value (participants with OSA; 150 mg) was −0.2 (5.10) mmHg. The “Mean Change in HR on ABPM … (SD)” value (participants with OSA; 150 mg) was 1.5 (6.53) bpm, the “Mean Change in SBP on ABPM … (SD)” value (participants with OSA; 150 mg) was −0.5 (8.64) mmHg and the “Mean Change in DBP on ABPM … (SD)” value (participants with OSA; 150 mg, listed as solriamfetol) was −0.2 mmHg. The “Mean Change in SBP on ABPM … (SD)” value (participants with OSA; 150 mg, listed as solriamfetol) was −0.5 mmHg, the “Mean Change in DBP on ABPM … (SD)” value (participants with OSA; 300 mg) was 2.5 (8.66) mmHg and the “Mean Change in HR on ABPM … (SD)” value (participants with OSA; 300 mg) was 1.9 (5.56) bpm. The “Mean Change in SBP on ABPM … (SD)” value (participants with OSA; 300 mg) was 2.9 (13.41) mmHg, the “Mean Change in DBP on ABPM … (SD)” value (participants with OSA; 300 mg, listed as solriamfetol) was 2.5 mmHg and the “Mean Change in SBP on ABPM … (SD)” value (participants with OSA; 300 mg, listed as solriamfetol) was 2.9 mmHg. The “percentage of non-dippers (<10% decrease in MAP during sleep)” value (participants with OSA; combined solriamfetol, week 8 (baseline 55%)) was 53%, the “time course of effects on BP (24-hour ABPM)” value (participants with OSA; highest approved dose of 150 mg/d) was “transient across the day” and the “effect on percentage of participants with a non-dipping BP profile” value (participants with OSA) was “not observed to have an increase”. For the same compound, the “effect on percentage of participants with a non-dipping BP profile” value (participants with OSA; listed as solriamfetol) was “did not increase”.
